How the values were obtained:
[1] = Organoleptic characteristics of the active ingredient as noted by the inventors; settings: for irritation of the mucosae: unmasked active ingredient, oropharynx
Solubility in saliva = type: physicochemical

Row | Compound | irritant effect in the oral cavity ([1]; attempts to modify the pH of the pharmaceutical preparation) | irritation of the mucosae [1] | solubility in saliva (Solubility in saliva)
1 | C[C@H](NCc1ccc(OCc2cccc(F)c2)cc1)C(N)=O [safinamide methanesulfonate, Safinamide methanesulfonate] | did not lead to a reduction of the irritant effect | pronounced tendency to irritate the mucosae of the first section of the oropharynx | fairly soluble in saliva
2 | (2 S)-2-[[4-[(3-fluorophenypmethoxy]phenyl]methyl amino]propanamide [safinamide] | – | pronounced tendency to irritate the mucosae of the first section of the oropharynx | –

From US10792257B2, “Pharmaceutical compositions comprising safinamide” (Zambon S.P.A., priority 2016, dated 2020)
